Measured values published in patent US20240150377A1, “MODULATORS OF CYSTIC FIBROSIS TRANSMEMBRANE CONDUCTANCE REGULATOR” (VERTEX PHARMACEUTICALS INCORPORATED, priority 2020, published 2024).
pEC50: −log10 of the molar value. Read-outs that look alike come from different tables or passages of the source. Values belong to the compound of their own block, whether it stands above or below them.

Molecular target: T1, CFTR (Homo sapiens, UniProt P13569, DEL508-508)
T1 construct: endogenous in cells; host or cells: primary human bronchial epithelial cells from CF subjects (F508del/MF-HBE), differentiated at air-liquid interface
T1 sequence (P13569 with tags, fused parts or gaps DEL508-508): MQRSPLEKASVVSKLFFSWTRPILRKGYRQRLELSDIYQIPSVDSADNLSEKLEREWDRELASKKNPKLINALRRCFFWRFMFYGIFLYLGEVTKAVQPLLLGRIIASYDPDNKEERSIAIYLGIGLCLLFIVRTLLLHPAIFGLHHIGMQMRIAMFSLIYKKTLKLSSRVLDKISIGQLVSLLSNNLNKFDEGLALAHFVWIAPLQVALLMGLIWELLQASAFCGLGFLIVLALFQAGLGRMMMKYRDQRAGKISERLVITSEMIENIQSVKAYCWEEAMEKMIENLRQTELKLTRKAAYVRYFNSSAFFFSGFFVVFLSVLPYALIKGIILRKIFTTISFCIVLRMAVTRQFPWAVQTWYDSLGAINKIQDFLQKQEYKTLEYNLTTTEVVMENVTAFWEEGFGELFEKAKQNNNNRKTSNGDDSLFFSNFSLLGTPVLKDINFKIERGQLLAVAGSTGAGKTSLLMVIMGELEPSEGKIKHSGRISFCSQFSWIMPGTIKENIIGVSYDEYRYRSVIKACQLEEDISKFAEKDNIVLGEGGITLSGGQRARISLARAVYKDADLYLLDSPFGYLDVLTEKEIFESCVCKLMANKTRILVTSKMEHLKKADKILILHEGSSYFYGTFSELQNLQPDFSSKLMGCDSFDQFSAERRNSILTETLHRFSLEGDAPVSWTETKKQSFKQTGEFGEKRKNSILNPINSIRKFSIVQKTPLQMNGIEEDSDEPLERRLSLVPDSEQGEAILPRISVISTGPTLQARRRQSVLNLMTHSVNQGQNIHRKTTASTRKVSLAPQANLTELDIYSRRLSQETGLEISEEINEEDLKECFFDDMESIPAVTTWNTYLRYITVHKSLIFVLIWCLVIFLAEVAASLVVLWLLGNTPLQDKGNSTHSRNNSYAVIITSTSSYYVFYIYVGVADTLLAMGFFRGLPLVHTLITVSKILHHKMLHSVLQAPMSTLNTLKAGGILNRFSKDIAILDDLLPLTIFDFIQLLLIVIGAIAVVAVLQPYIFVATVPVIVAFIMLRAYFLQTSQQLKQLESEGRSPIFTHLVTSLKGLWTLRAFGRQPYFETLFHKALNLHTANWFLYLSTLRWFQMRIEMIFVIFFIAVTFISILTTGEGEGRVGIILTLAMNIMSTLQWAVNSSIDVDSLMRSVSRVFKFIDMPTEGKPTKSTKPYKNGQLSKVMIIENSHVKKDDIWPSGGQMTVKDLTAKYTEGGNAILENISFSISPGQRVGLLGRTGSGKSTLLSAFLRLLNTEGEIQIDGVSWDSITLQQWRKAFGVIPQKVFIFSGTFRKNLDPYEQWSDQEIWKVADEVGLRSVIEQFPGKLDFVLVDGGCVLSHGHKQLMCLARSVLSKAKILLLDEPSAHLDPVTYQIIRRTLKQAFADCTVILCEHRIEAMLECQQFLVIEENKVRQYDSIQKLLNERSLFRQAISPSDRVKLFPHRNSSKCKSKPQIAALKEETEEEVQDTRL
Experiment: HBE assay: Ussing chamber assay of CFTR-mediated short-circuit currents
Type: cell-based
Details: for pEC50: read-out: HBE EC50; for activation at 10 µM: read-out: HBE Activity at 10 μM (%)
In short: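 CFTR-mediated Isc (μA/cm²) equals the peak response to apical 20 μM forskolin minus the residual after a 20 μM each BPO/GlyH-101/CFTR inhibitor 172 cocktail, recorded in Ussing chambers at Vhold 0 mV, 37 °C, pH 7.4, with 30 μM apical amiloride. Cells were F508del/MF HBE cultures preincubated 18-24 h with corrector (concentration range or 10 μM) plus 1 μM ivacaftor in 20% human serum.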

[1] = Table 12, read-out: HBE Max Activity (%)
[2] = Table 11, read-out: HBE Max Activity (%)
[3] = HBE assay, read-out: HBE Max activity (%)
[4] = Table 10, read-out: HBE Max activity (%)

SMILES: Cc1cccc(C)c1-c1cc2nc(n1)NS(=O)(=O)c1cccc(c1)C(=O)N(Cc1ccc(N3CCC(C(C)(C)O)CC3)cn1)[C@H](CC(C)(C)C)CO2 [Compound 254]
- activation at 10 µM (Table 13, at 10 μM): > 600%

SMILES: Cc1cccc(C)c1-c1cc2nc(n1)NS(=O)(=O)c1cccc(c1)C(=O)N(CC1CCC(N3CCOCC3)CC1)[C@H](CC(C)(C)C)CO2 (single isomer, unassigned) [Compound 153]
- pEC50 (Table 10): > 6.00

SMILES: Cc1cccc(C)c1-c1cc2nc(n1)NS(=O)(=O)c1cccc(c1)C(=O)N(CC(=O)NCCN1CCOCC1)[C@H](CC(C)(C)C)CO2 [Compound 166]
- activation at 10 µM (Table 12, at 10 μM): > 600%

SMILES: Cc1cccc(C)c1-c1cc2nc(n1)NS(=O)(=O)c1cccc(c1)C(=O)N(Cc1ccc(C3CCOCC3)cn1)[C@H](CC(C)(C)C)CO2 [Compound 52, (11R)-6-(2,6-Dimethylphenyl)-11-(2,2-dimethylpropyl)-2,2-dioxo-12-[(5-tetrahydropyran-4-yl-2-pyridyl)methyl]-9-oxa-2λ^6-thia-3,5,12,19-tetrazatricyclo[12.3.1.14,8]nonadeca-1(18),4(19),5,7,14,16-hexaen-13-one]
- pEC50 (Table 11): > 6.00
- Emax [2]: > 60%

SMILES: COC[C@H]1CCCN1c1cccc(CN2C(=O)c3cccc(c3)S(=O)(=O)Nc3nc(cc(-c4c(C)cccc4C)n3)OC[C@H]2CC(C)(C)C)n1 [Compound 276]
- pEC50 (Table 12): > 6.00
- Emax [1]: > 60%

SMILES: Cc1cccc(C)c1-c1cc2nc(n1)NS(=O)(=O)c1cccc(c1)C(=O)N(CC1CC(C)(C)CCO1)[C@H](CC(C)(C)C)CO2 (single isomer, unassigned) [Compound 25]
- activation at 10 µM (Table 11, at 10 μM): > 60%

SMILES: Cc1cccc(C)c1-c1cc2nc(n1)NS(=O)(=O)c1cccc(c1)C(=O)N(Cc1ccc(-c3cncnc3)cc1)[C@H](CC(C)(C)C)CO2 [Compound 144, (11R)-6-(2,6-dimethylphenyl)-11-(2,2-dimethylpropyl)-2,2-dioxo-12-[(4-pyrimidin-5-ylphenyl)methyl]-9-oxa-2λ^6-thia-3,5,12,19-tetrazatricyclo[12.3.1.14,8]nonadeca-1(18),4(19),5,7,14,16-hexaen-13-one]
- pEC50 (Table 10): > 6.00
- Emax [4]: > 60%

Other lines, results leading:

- pEC50 (Table 12): > 6.00
- Emax [1]: > 60%
SMILES: Cc1cccc(C)c1-c1cc2nc(n1)NS(=O)(=O)c1cccc(c1)C(=O)N(Cc1nccc(N(C)C(C)C)n1)[C@H](CC1CC1)CO2 [Compound 459]

- pEC50 (Table 11): 4.52 to 5.52
- Emax [2]: > 60%
SMILES: Cc1cccc(C)c1-c1cc2nc(n1)NS(=O)(=O)c1cccc(c1)C(=O)N(Cc1ncc(N3C[C@H](C)C[C@@H](C)C3)cn1)[C@H](CC(C)(C)C)CO2 [Compound 716]

- pEC50 (Table 12): > 6.00
- Emax [1]: > 60%
SMILES: Cc1cccc(C)c1-c1cc2nc(n1)NS(=O)(=O)c1cccc(c1)C(=O)N(Cc1cccc(N(C)C3CC4(CCC4)C3)n1)[C@H](CC(C)(C)C)CO2 [Compound 439]

- activation at 10 µM (HBE assay, 10 μM): > 60%
SMILES: COCC(COC)N(C)c1cncc(CN2C(=O)c3cccc(c3)S(=O)(=O)Nc3nc(cc(-c4c(C)cccc4C)n3)OC[C@H]2CC(C)(C)C)n1 [Compound 1531]

- pEC50 (HBE assay): > 6.00
- Emax [3]: > 60%
SMILES: CCOc1cnc(CN2C(=O)c3cccc(c3)S(=O)(=O)Nc3nc(cc(-c4c(C)cccc4C)n3)OC[C@H]2CCC(C)(C)C)nc1 [Compound 1488]

- pEC50 (Table 12): > 6.00
- Emax [1]: > 60%
SMILES: Cc1cccc(C)c1-c1cc2nc(n1)NS(=O)(=O)c1cccc(c1)C(=O)N(Cc1ncc(C(C)C)s1)[C@H](CC(C)(C)C)CO2 [Compound 705]

- activation at 10 µM (Table 13, at 10 μM): > 600%
SMILES: Cc1cc(C2CCOCC2)ccc1CN1C(=O)c2cccc(c2)S(=O)(=O)Nc2nc(cc(-c3c(C)cccc3C)n2)OC[C@H]1CC(C)(C)C [Compound 519]

- pEC50 (HBE assay): > 6.00
- Emax [3]: > 60%
SMILES: COC[C@H]1CCN(c2cnc(CN3C(=O)c4cccc(c4)S(=O)(=O)Nc4nc(cc(-c5c(C)cccc5C)n4)OC[C@H]3CC(C)(C)C)nc2)C1 [Compound 1439]

- Emax [4]: > 60%
SMILES: COCCNc1cccc(CN2C(=O)c3cccc(c3)S(=O)(=O)Nc3nc(cc(-c4c(C)cccc4C)n3)OC[C@H]2CC(C)(C)C)n1 [Compound 475]

- pEC50 (Table 12): > 6.00
- Emax [1]: > 60%
SMILES: Cc1cccc(C)c1-c1cc2nc(n1)NS(=O)(=O)c1cccc(c1)C(=O)N(Cc1cncc(N(C)CC(C)(C)C)n1)[C@H](CC(C)C)CO2 [Compound 551]
